Key:
[1] = Delayed parenteral (ip) chelation treatment of mice contaminated iv with ^238Pu-citrate; format: in vivo, Swiss-Webster mice; conditions: for adverse effects at the dose levels used: both studies (delayed and prophylactic treatment); for sustained action beyond 24 hours after treatment: cumulative ^238Pu excretion, FIG. 4; for ^238Pu excretion pathway enhanced by treatment: independent of post-contamination treatment time, FIG. 5; for time by which rates of elimination became slower than in control animals: prompt treatment 1 hour post-contamination; for ^238Pu elimination, total body burden and tissue content versus saline-treated controls: 7 days after treatment
Protocol: (§1) A stock solution of ^238Pu-nitrate in 4 M HNO3 was purchased from Eckert and Ziegler Isotope Products (Valencia, CA, USA) and used to prepare injection solutions. Contamination doses consisted of 0.2 mL aliquots of solutions containing 0.74 kBq (1.16 ng) of ^238Pu in 0.008 M sodium citrate and 0.14 M NaCl, pH 4. The ligands 3,4,3-LI(1,2-HOPO) and 5-LIO(Me-3,2-HOPO) were prepared by Synthetech, Inc. (Albany, Oreg., USA) and Albany Molecular Research, Inc. (Albany, NY, USA), respectively, as described previously. DTPA was obtained from Sigma-Aldrich (St. Louis, Mo., USA) and was formulated as Ca-DTPA using CaCO3 and NaOH, similarly to the formerly available drug product commercialized by Hameln Pharmaceuticals gmbh (Hameln, Germany). Ligand solutions were prepared such that the selected dosages ([…] for Ca-DTPA, 30 or 100 mol/kg for 3,4,3-LI(1,2-HOPO), and 100 or 200 mol/kg for 5-LIO(Me-3,2-HOPO)) were contained in 0.5 mL of 0.14 M NaCl, with the pH adjusted to 7.4-8.4 with 1 N NaOH. All solutions were filter-sterilized (0.22 μm) prior to administration. The concentration of each solution was verified by high-performance liquid chromatography, following modified published methods.
(§2) All procedures and protocols used in the described in vivo studies were reviewed and approved by the Institutional Animal Care and Use Committee of Lawrence Berkeley National Laboratory and were performed in AAALAC accredited facilities. The animals used were young adult (86±6 days old for delayed treatment experiment and 90±3 days old for prophylactic treatment experiment) female (30.7±4.0 g for delayed treatment experiment and 30.8±1.6 g for prophylactic treatment experiment) Swiss-Webster mice (Simonsen Laboratories, Gilroy, Calif., USA). Gross body and tissue compositions, plasma, extracellular fluid, and red cell volumes of the whole body, major tissues and organs of these mice (intact or bled 25 to 40% of their total blood volume) have been determined previously. Mice were kept under a 12-hour light cycle with controlled temperature (18-22° C.) and relative humidity (30-70%), and were given water and food ad libitum. Each group of mice was housed together in a plastic stock cage lined with a 0.5 cm layer of highly absorbent low-ash pelleted cellulose bedding (ALPHA-dri®) for separation of urine and feces. Intravenous (iv) injections into a warmed lateral tail vein, intraperitoneal (ip) injections, oral administrations (po, through gastric intubation) and euthanasia were performed under isoflurane anesthesia. Treatment dose volumes were adjusted based on the weight of the mouse, with a 0.5 mL volume corresponding to a 35 g mouse. To probe the effect of delayed treatment, groups of five mice were injected iv with a single dose of ^238Pu-citrate, and ligand or control saline solutions were administered ip once at the following post-contamination treatment times: 1 h, 5 h, 16 h, 24 h, 3 d, 7 d. Excreta were collected daily for 7 days. Animals were euthanized 7 days after treatment. To probe the effect of prophylactic treatment, groups of five mice were first administered ligand or control saline solutions ip or po once at the following pre-contamination treatment times: −1 h, −6 h, −16 h, −24 h, −30 h, −40 h, −48 h. Mice were then injected iv with a single dose of ^238Pu-citrate and excreta were collected daily for 3 days. Animals were euthanized 3 days (72 h) after contamination. Mice were euthanized by cervical dislocation over their respective cage to collect the urine expelled at death, and immediately wrapped in plastic and frozen for later dissection.
(§3) After partial thawing of the frozen mice, livers and kidneys were dissected, and the abdominal tissue remainder (ATR, which includes intact gastrointestinal (GI) tract, reproductive organs, spleen, urinary bladder, and abdominal fat) was removed. The livers, kidneys, ATR, and partially eviscerated carcasses were managed as individual samples. […]

[2] = Prophylactic parenteral or oral chelation treatment of mice before iv ^238Pu-citrate contamination; format: in vivo, Swiss-Webster mice; conditions: for prophylactic window with significant reductions in total body, skeleton and liver ^238Pu: oral administration, versus saline controls; for prophylactic window with significant reduction of body and tissue ^238Pu burden: parenteral (ip) administration prior to contamination
Protocol: as §1, §2, §3

[3] = Complex stability constant in vitro, Pu(IV); format: binding
Description: (§4) The mechanism of action of 3,4,3-LI(1,2-HOPO) is a chelation mechanism, in which the compound binds the targeted actinide and forms a stable complex that can be eliminated through excretion pathways. Chelation is likely to be clinically efficacious if the affinity of the chelating agent for the targeted actinide metal ion is higher than those of potential biological ligands (such as proteins and bone matrices) and if its affinity for the targeted actinide metal ion is more specific than for essential divalent metal ions. A quantitative tool to predict the efficacy of a chelating agent and confirm its potential for actinide chelation is the determination of the corresponding actinide complex stability constants in vitro. As outlined in Example 2 below, these constants were evaluated for metals such as Pu(IV) (Log β110>41.5) or Cm(III) (Log β110=21.8), and support the chelation mechanism of action by 3,4,3-LI(1,2-HOPO).

[4] = Complex stability constant in vitro, Cm(III); format: binding
Description: as §4

[5] = Complex stability constant in vitro, Gd(III); format: binding
Description: as §4

[6] = Gd-153 decorporation in mice injected with ^153Gd citrate (Example 9); format: in vivo; conditions: for excretion pathway: Gd-153
Protocol: The present example is an evaluation of the metal-removal effectiveness of various molecules, including 3,4,3-LI(1,2-HOPO) and DTPA. The arrangements tested (which compounds, how much, how long pre or post-contamination the compound was administered, etc.) are outlined in Table 9.1.
The results of the various test arrangements in Table 9.1 are detailed in FIGS. 8A-8Q. The data is plotted as a percent of recovered dose (%RD), with whole animal and specific tissue isotope content determine at a unique time point (4 days post metal challenge) while excreta are determined daily until necropsy. […] The almost-exclusively-fecal excretion pathway of 3,4,3-LI(1,2-HOPO) is also remarkably different from that of DTPA (urinary). […] FIGS. 8A-8C depict a general overview of the results. FIG. 8D depicts a comparative analysis of the recovered dose in the body vs excreta. FIGS. 8E-8P depict a break down by tissue type, including brain (FIG. 8E), Thymus (FIG. 8F), heart (FIG. 8G), lungs (FIG. 8H), spleen (FIG. 8I), kidneys (FIG. 8J), abdominal remaining tissue (ART, FIG. 8K), all other soft tissues (SOFT, FIG. 8L), liver (FIG. 8M), and skeleton (SKEL, FIG. 8N). FIGS. 8O and 8P show the total urinary and fecal excretion at the time of necropsy. FIG. 8Q depicts the daily excreta.

[7] = Pharmacokinetics and biodistribution of ^14C-labeled ligand in mice; format: in vivo, Swiss-Webster mouse; conditions: for metabolic degradation: ^14C-labeled ligands
Description: The pharmacokinetics and biodistribution profile of the ^14C-labeled 3,4,3-LI(1,2-HOPO) were recently characterized in the young Swiss-Webster mouse model. After parenteral injection, the radiolabeled compound was rapidly distributed into high vascular tissues, and highest kidney and liver concentrations were seen as early as 1-hour post-administration. However, those high concentrations […] and more strikingly, about 40% of the administered dose was still in various tissues and organs after 24 hours. […] Nevertheless, retention of the ligand was significant within the first 6 hours after oral administration, which also corroborates the shorter but consequent prophylactic activity of 3,4,3-LI(1,2-HOPO) after oral administration.
Those differences have been discussed previously and are presumably based on respective ligand and actinide-complex physico-chemical parameters such as solubility, lipophilicity, and ionization constants. […] It is therefore likely that the radionuclide excretion path is ligand-driven.
(§5) Oral Activity. Both compounds are orally active actinide chelators: when administered orally to mice or beagles after a Pu injection, 3,4,3-LI-1,2-HOPO and 5-LIO-Me-3,2-HOPO can remove up to 80% and 60%, respectively, of the injected Pu.

[8] = Clearing circulating or newly deposited Pu from mouse tissues compared with CaNa3-DTPA; format: in vivo
Description: For example, the efficiency of 3,4,3-LI-1,2-HOPO for clearing circulating Pu from mouse tissues ranges from 100 times (skeleton) to 240 times (soft tissues) that of CaNa3-DTPA in five different protocols. In addition, the optimal activity dose of 3,4,3-LI-1,2-HOPO for removing newly deposited Pu from mice is 2.5% of the dose of CaNa3-DTPA used clinically. The tetradentate 5-LIO-Me-3,2-HOPO has potential therapeutic value for Pu, U, Am and Np, and its efficiency for clearing circulating Pu from mouse tissues ranges from 5 times (skeleton) to 15 times (liver) that of CaNa3-DTPA.

[9] = Oral activity: removal of injected Pu after oral administration; format: in vivo; conditions: administered orally after a Pu injection, mice or beagles
Description: as §5

[10] = ADME studies with ^14C-labeled 3,4,3-LI(1,2-HOPO) in rats (brain); format: in vivo; conditions: ^14C-labeled ligand; traces in rat brain several days after administration
Description: (§6) This property is particularly relevant to target Gd deposited in the brain.

[11] = Decorporation of actinide ions in animal studies, potency versus DTPA; format: in vivo
Description: as §6

[12] = single ip dose 1 hour to 16 hours post-contamination

O=C(NCCCN(CCCCN(CCCNC(=O)c1cccc(=O)n1O)C(=O)c1cccc(=O)n1O)C(=O)c1cccc(=O)n1O)c1cccc(=O)n1O [3,4,3-LI(1,2-HOPO)]
^238Pu skeleton content ([1]; all tested treatment time points): significantly reduced
adverse effects at the dose levels used [1]: did not result in any discernable adverse effects
sustained action beyond 24 hours after treatment [1]: visible throughout the seven-day excreta collection period
^238Pu excretion pathway enhanced by treatment [1]: primarily through the biliary pathway
time by which rates of elimination became slower than in control animals [1]: 3 days post-treatment
decrease in ^238Pu content versus DTPA treatment [1, 12]: significantly better than those observed after DTPA treatment
^238Pu elimination, total body burden and tissue content versus saline-treated controls [1, 12]: significant increases in ^238Pu elimination rates
^238Pu elimination ([1]; treatment delayed 24 hours to 7 days after contamination): significantly enhanced
^238Pu urinary output relative to fecal output ([2]; 30 μmol/kg ip 1 hour prior to contamination): 3 fold
^238Pu excreted within 3 days ([2]; ip injection 48 hours before contamination): up to 50%
prophylactic window with significant reductions in total body, skeleton and liver ^238Pu [2]: 6 h
prophylactic window with significant reduction of body and tissue ^238Pu burden [2]: ≥ 48 h
full body, skeleton, liver, soft tissue and kidney ^238Pu content versus saline- and DTPA-treated groups ([2]; prophylactic ip treatment): large significant reductions
oral bioavailability ([2]; reflected in lack of efficacy for earlier oral treatments): low
Log β110 [3]: > 41.5
Log β110 [4]: 21.8
Log β110 [5]: 20.5
Gd-153 removal ([6]; 100 μmol/kg ip, 48 hours post-exposure): extremely efficient
Gd-153 decorporation ([6]; 100 μmol/kg ip, up to 24 hours prophylactically): high and almost quantitative level of decorporation
excretion pathway [6]: almost-exclusively-fecal
Gd-153 removal from kidneys ([6]; compared with DTPA): more efficient than DTPA
Gd-153 removal from the skeleton ([6]; mouse, in vivo): ability at removing Gd-153 from the skeleton
metabolic degradation [7]: stable to metabolic degradation
administered dose still in various tissues and organs ([7]; after 24 hours, parenteral injection, ^14C-labeled): about 40%
main mode of elimination of the ligand ([7]; mice, parenteral or oral administration, ^14C-labeled): biliary pathway is the main mode of elimination
time of highest kidney and liver concentrations ([7]; post-administration, parenteral injection, ^14C-labeled): 1 h
optimal activity dose for removing newly deposited Pu, as share of the CaNa3-DTPA dose used clinically ([8]; mice): 2.5%
efficiency for clearing circulating Pu relative to CaNa3-DTPA ([8]; mouse skeleton): 100 times
efficiency for clearing circulating Pu relative to CaNa3-DTPA ([8]; mouse soft tissues): 240 times
injected Pu removed [9]: up to 80%
blood-brain barrier penetration [10]: can penetrate the blood-brain barrier
potency relative to DTPA at decorporating actinide ions [11]: up to 30 times

Cn1ccc(C(=O)NCCOCCNC(=O)c2ccn(C)c(=O)c2O)c(O)c1=O [5-LIO(Me-3,2-HOPO)]
adverse effects at the dose levels used [1]: did not result in any discernable adverse effects
sustained action beyond 24 hours after treatment [1]: did not display significant sustained action
^238Pu excretion pathway enhanced by treatment [1]: primarily through the biliary pathway
time by which rates of elimination became slower than in control animals [1]: 2 days post-treatment
^238Pu elimination, total body burden and tissue content versus saline-treated controls [1, 12]: significant increases in ^238Pu elimination rates
prophylactic window with significant reductions in total body, skeleton and liver ^238Pu [2]: 6 h
prophylactic window with significant reduction of body and tissue ^238Pu burden [2]: 1 h
metabolic degradation [7]: stable to metabolic degradation
efficiency for clearing circulating Pu relative to CaNa3-DTPA ([8]; mouse liver): 15 times
efficiency for clearing circulating Pu relative to CaNa3-DTPA ([8]; mouse skeleton): 5 times
injected Pu removed [9]: ≤ 60%

diethylenetriamine pentaacetic acid [DTPA, reference compound]
sustained action beyond 24 hours after treatment [1]: visible over several days after treatment
^238Pu excretion pathway enhanced by treatment [1]: enhanced urinary excretion
prophylactic window with significant reduction of body and tissue ^238Pu burden [2]: 6 h
excretion pathway [6]: urinary

From patent US20190183868A1, “FORMULATIONS AND TREATMENTS EMPLOYING HYDROXYPYRIDONATE ACTINIDE/LANTHANIDE DECORPORATION AGENTS” (priority 2016, published 2019)
